Drawing on patent publication US7163952B2, “Azole compound and medicinal use thereof” (Japan Tobacco Inc., priority 2001, dated 2007), this text covers melting point for 24 molecules.

As a reminder, the melting point is the temperature of the solid-liquid transition.

Counter-ions that a name gives are not always drawn.

Turning to `CC(C)CCN(c1ccc(C(=O)O)cc1)c1nc(-c2cc(Cl)ccc2OCc2ccccc2)cs1` [Example 168, 4-(N-(4-(2-benzyloxy-5-chlorophenyl)-2-thiazolyl)-N-(3-methylbutyl)amino)benzoic acid], the melting point was in the range of 143 to 149 °C.

`O=C(O)c1ccc(Nc2nc(-c3nc4cc(OCc5ccc(Cl)c(Cl)c5)ccc4[nH]3)cs2)cc1` (as salt: hydrochloride) [Example 186, 4-(4-(5-(3,4-dichlorobenzyloxy)-2-benzoimidazolyl)-2-thiazolylamino)benzoic acid hydrochloride] gave a melting point of 220 °C.

In the case of `O=C(O)c1ccc(N(CCC2CCCCC2)c2nc(-c3nc4ccc(OCc5ccc(Cl)c(Cl)c5)cc4o3)cs2)cc1` [Example 184, 4-(N-(2-cyclohexylethyl)-N-(4-(6-(3,4-dichlorobenzyloxy)-2-benzooxazolyl)-2-thiazolyl)amino)benzoic acid], the melting point lay in the range of 195 to 197 °C.

Consider `CC(C)N(c1ccc(OCC(=O)O)cc1)c1nc(-c2ccc(NC(=O)C3CCCCC3)cc2)cs1` [Example 50, (4-(N-(4-(4-(cyclohexanecarbonylamino)phenyl)-2-thiazolyl)-N-isopropylamino)phenoxy)acetic acid], for which the melting point is 225 °C (dec.).

Consider `O=C(O)c1ccc(N(CCN2CCCCC2)c2nc(-c3ccc(OCc4ccc(Cl)c(Cl)c4)cc3)cs2)cc1` [Example 98, 4-(N-(4-(4-(3,4-dichlorobenzyloxy)phenyl)-2-thiazolyl)-N-(2-piperidinoethyl)amino)benzoic acid], for which the melting point is 230 °C (dec.).

`CC(C)(c1ccc(C(=O)O)cc1)c1nc(-c2ccc(OCc3ccc(C4CCCCC4)cc3)cc2)cs1` [Example 42, 4-(1-(4-(4-(4-cyclohexylbenzyloxy)phenyl)-2-thiazolyl)-1-methylethyl)benzoic acid] yielded a melting point of 219 to 221 °C.

In the case of `O=C(O)CN(c1ccc(C(=O)O)cc1)c1nc(-c2ccc(NC(=O)c3ccc(C4CCCCC4)cc3)cc2)cs1` [Example 18, 4-(N-carboxymethyl-N-(4-(4-(4-cyclohexylbenzoylamino)phenyl)-2-thiazolyl)amino)benzoic acid], the melting point was 230 °C (dec.).

Regarding `CC(C)(c1ccc(C(=O)O)cc1)c1nc(-c2ccc(NC(=O)c3ccc(N4CCOCC4)cc3)cc2)cs1` [Example 44, 4-(1-methyl-1-(4-(4-(4-morpholinobenzoylamino)phenyl)-2-thiazolyl)ethyl)benzoic acid], the melting point is 290 °C (dec.).

Molecule `CC(C)N(Cc1ccc(C(=O)O)cc1)c1nc(-c2ccc(OCc3ccc(Cl)c(Cl)c3)cc2)cs1` [Example 77, 4-((N-(4-(4-(3,4-dichlorobenzyloxy)phenyl)-2-thiazolyl)-N-isopropylamino)methyl)benzoic acid] registered a melting point of 180 to 181 °C.

Consider `CC(=O)OC(C)OC(=O)c1ccc(CN(C)c2nc(-c3ccc(OCc4ccc(C5CCCCC5)cc4)cc3)cs2)cc1` (stereo not drawn) [Example 250, 1-acetoxyethyl 4-((N-(4-(4-(4-cyclohexylbenzyloxy)phenyl)-2-thiazolyl)-N-methylamino)methyl)benzoate], for which the melting point lay within 116 to 117 °C.

As for `CN(c1ccc(C(=O)O)cc1)c1nc(-c2ccc(NCc3ccc(C4CCCCC4)cc3)cc2)cs1` (as salt: hydrochloride) [Example 258, 4-(N-(4-(4-(4-cyclohexylbenzylamino)phenyl)-2-thiazolyl)-N-methylamino)benzoic acid hydrochloride], the melting point was in the range of 234 to 236 °C.

`CN(CCc1ccc(C(C)(C)C)cc1)c1ccc(-c2csc(N(C)Cc3ccc(C(=O)O)cc3)n2)cc1` [Example 235, 4-((N-(4-(4-(N-(2-(4-tert-butylphenyl)ethyl)-N-methylamino)phenyl)-2-thiazolyl)-N-methylamino)methyl)benzoic acid] came in with a melting point of 162 °C.

`COc1ccc(OCc2ccc(C(F)(F)F)cc2)c(-c2csc(Nc3ccc(C(=O)O)cc3OCc3ccccc3)n2)c1` [Example 180, 3-benzyloxy-4-(4-(5-methoxy-2-(4-trifluoromethylbenzyloxy)phenyl)-2-thiazolylamino)benzoic acid] gave a melting point of 227 to 230 °C.

Molecule `O=C(O)c1ccc(N(CCC2CCCCC2)c2nc(-c3cc(Cl)ccc3OCc3ccc(Cl)c(Cl)c3)cs2)cc1` [Example 178, 4-(N-(4-(5-chloro-2-(3,4-dichlorobenzyloxy)phenyl)-2-thiazolyl)-N-(2-cyclohexylethyl)amino)benzoic acid] showed a melting point of 195 to 198 °C.

For `CN(Cc1ccc(C(=O)O)cc1)c1nc(-c2ccc(OCc3ccc(C4CCCCC4)cc3)cc2)cs1.CS(=O)(=O)O`, the melting point is 175 °C (dec.).

On to `CC(C)N(c1ccc(OCC(=O)O)cc1)c1nc(-c2ccc(NC(=O)c3ccc(N4CCOCC4)cc3)cc2)cs1` [Example 54, (4-(N-isopropyl-N-(4-(4-(4-morpholinobenzoylamino)phenyl)-2-thiazolyl)amino)phenoxy)acetic acid], for which the melting point was 250 °C (dec.).

`CC(C)N(Cc1ccc(C(=O)O)cc1)c1nc(-c2ccc(NS(=O)(=O)c3ccc(Cl)c(Cl)c3)cc2)cs1` [Example 105, 4-((N-(4-(4-(3,4-dichlorobenzenesulfonylamino)phenyl)-2-thiazolyl)-N-isopropylamino)methyl)benzoic acid] gave a melting point of 193 to 195 °C.

Molecule `CC(C)N(c1ccc(-c2nnn[nH]2)cc1)c1nc(-c2ccc(OCc3ccc(C4CCCCC4)cc3)cc2)cs1` [Example 78, N-(4-(4-(4-cyclohexylbenzyloxy)phenyl)-2-thiazolyl)-N-isopropyl-(4-(1H-tetrazol-5-yl)phenyl)amine] came in with a melting point of 215 to 216 °C.

In turn, `CC1CC(C)CN(c2ccc(C(=O)Nc3ccc(-c4csc(N(c5ccc(C(=O)O)cc5)C(C)C)n4)cc3)cc2)C1.Cl` (stereo not drawn) displayed a melting point of 152 to 160 °C.

`COc1ccc(OCc2ccc(C(F)(F)F)cc2)c(-c2csc(Nc3ccc(C(=O)O)cc3)n2)c1` [Example 155, 4-(4-(5-methoxy-2-(4-trifluoromethylbenzyloxy)phenyl)-2-thiazolylamino)benzoic acid] registered a melting point of 218 to 219 °C.

Molecule `CN(Cc1ccc([C@H]2CC[C@@H](O)CC2)cc1)c1ccc(-c2csc(N(C)Cc3ccc(C(=O)O)cc3)n2)cc1` [Example 194, cis-4-((N-(4-(4-(N-(4-(4-hydroxycyclohexyl)benzyl)-N-methylamino)phenyl)-2-thiazolyl)-N-methylamino)methyl)benzoic acid] showed a melting point of 180 to 181 °C.

The molecule `CC(C)CN(c1ccc(C(=O)O)cc1)c1nc(-c2ccc(NC(=O)C3CCCCC3)cc2)cs1` [Example 13, 4-(N-(4-(4-(cyclohexanecarbonylamino)phenyl)-2-thiazolyl)-N-isobutylamino)benzoic acid] showed a melting point of 231 to 232 °C.

In the case of `CN(Cc1ccc(C2CCCCC2)cc1)c1ccc(-c2csc(N(C)Cc3cccc(C(=O)O)c3)n2)cc1` [Example 204, 3-((N-(4-(4-(N-(4-cyclohexylbenzyl)-N-methylamino)phenyl)-2-thiazolyl)-N-methylamino)methyl)benzoic acid], the melting point is 183 °C (dec.).

For the molecule `CC(C)N(c1ccc(C(=O)O)cc1)c1nc(-c2ccc(NC(=O)CCCC3CCCCC3)cc2)cs1` [Example 46, 4-(N-(4-(4-(4-cyclohexylbutyrylamino)phenyl)-2-thiazolyl)-N-isopropylamino)benzoic acid], the melting point is 230 °C (dec.).
